{"source": "patent US20100159030A1", "about": "“METHODS FOR DETECTING AND MODULATING THE SENSITIVITY OF TUMOR CELLS TO ANTI-MITOTIC AGENTS AND FOR MODULATING TURMORGENICITY” (NewSouth Innovations Pty Limited, priority 2007, published 2010)", "key": {"CCRF-CEM Leukaemia cells": {"test_system": "CCRF-CEM Leukaemia cells", "format": "cell-based", "conditions": "2ME2-resistant sublines", "excerpt": "The tubulin-binding agent 2-methoxyestradiol (2ME2) binds to β-tubulin near the colchicine-binding site, inhibits microtubule polymerization, and induces mitotic arrest. CCRF-CEM Leukaemia cells that display increasing resistance to 2ME2 were selected, and four of the highly 2ME2 resistant leukaemia sublines were chosen for detailed analysis."}, "Calu-6 cells [1]": {"test_system": "Calu-6 cells", "experiment": "Drug-treated clonogenic assay on siRNA-transfected cells", "format": "cell-based, Human", "method": "Cells were transfected for 24 h and approximately 600 cells (for Calu-6) or 150 cells (for H460) were seeded into each well of a 6-well plate and allowed to attach for 4-6 h. The cell lines used in this study were not subject to prior drug selection, and are likely to represent intrinsic drug resistance observed in lung carcinoma.\nCells were then treated with increasing concentrations of various anti-mitotic drugs. Following a 3-day incubation at 37° C., the drug-containing medium was removed and replaced with fresh complete medium. Medium was changed at 3-4 day intervals for 7 to 10 days until visible colonies formed. […] Surviving colonies were simultaneously fixed and stained with 0.5% crystal violet in methanol, rinsed with water to remove excess stain and air-dried overnight.\nThe colonies in each well were manually counted, and the results were presented as surviving fraction according to the formula: surviving fraction was calculated as follows: colony number/(number of cells seeded×plating efficiency), where plating efficiency is equivalent to the colony number divided by the number of cells seeded in the drug-free medium. Dose-response curves were plotted for each drug-cell line combination and inhibitory dose (ID50) values were extrapolated from this curve using GraphPad Prism program (GraphPad Software, version 4, San Diego, Calif.). ID50 was defined as the concentration of the drug required to reduce the number of colonies in drug-treated wells to 50% of that of the relevant untreated control wells. The ID50 values were the means of at least four independent experiments.\nTo quantitate any change in drug sensitivity, drug treated clonogenic assays were performed. Twenty-four hours after siRNA transfection, cells were harvested and plated into 6-well plates for 6 h, prior to the addition of various drugs as indicated in the figure legends. After 72 h incubation, the drug-containing media was removed and replaced with complete growth media. Medium was changed every 3 days for 7 to 10 days until visible colonies formed. Colonies were simultaneously fixed and stained with 0.5% crystal violet in methanol, and manually counted. Individual stained colonies in each well were counted and the surviving fraction was calculated as follows: colony number/(number of cells seeded×plating efficiency), where plating efficiency equals the colony number divided by the number of cells seeded in drug-free media."}, "Calu-6 cells [2]": {"test_system": "Calu-6 cells", "experiment": "Immunofluorescent staining of microtubules (α-tubulin) after drug treatment", "format": "cell-based, Human", "conditions": "1 h, vs control", "method": "Transfected Calu-6 cells were grown on sterile chamber slides until 60-70% confluent. Cells were then treated with paclitaxel and vincristine for 1 h at 10 nM. Cells were fixed in methanol and processed for staining as previously described (Don et al. (2004) supra) with minor modifications. Fixed cells were stained with α-tubulin (1:400 in 5% FCS/PBS, Sigma) for 30 min followed by Cy2 anti-mouse fluorescent tagged antibody (1:1,000 in 5% FCS/PBS, GE Healthcare). Slides were mounted on a coverslip using DAPI II Counterstain (Vysis Inc., Downers Grove, Ill.). Slides were viewed using a Zeiss Axioplan 2 Immunofluorescence Microscope (Mannheim, Germany) with Image-Pro® Plus 4.1 software (Media Cybernetics, L.P., Silver Spring, Md.).\nTo assess the effects of βIII downregulation on microtubule organization, immunofluorescence staining was performed on transfected Calu-6 cells as follows. Briefly, siRNA transfected cells were plated in glass chamber slides and allowed to reach 70% confluence. Cells were then treated with 10 nM of paclitaxel or vincristine for 1 hour. Drug was then removed by washing cells with PBS and blocked in 10% FCS/PBS. For dual staining, cells were first labelled with an antibody to class III β-tubulin which was exposed to cells incubated at 37° C. for 30 minutes in a humidified chamber. Following washes in 0.1% Tween 20/PBS at room temperature, the slides were incubated with Cy3 anti-mouse fluorescent-tagged antibody (GE Healthcare) for 40 minutes in a humidified chamber in the dark at room temperature. Following incubation, the slides were washed again in 0.1% Tween 20/PBS. This was then followed by staining with α-tubulin and Cy2 anti-mouse fluorescent tagged antibody (GE Healthcare). Slides were mounted on a coverslip using DAPI II Counterstain (Vysis Inc., Downers Grove, Ill.). Immunofluorescence microscopy was performed and images were captured using a Sensicam Charged Coupled Device camera (PCO Imaging, Kelheim, Bavaria, Germany) and the Image-Pro® Plus 4.1 software (Media Cybernetics, L.P., Silver Spring, Md.)."}, "H460 cells": {"test_system": "H460 cells", "experiment": "Cell cycle analysis by flow cytometry (propidium iodide)", "format": "cell-based, Human", "conditions": "24 h", "method": "The distribution of DNA content in βII or βIVb tubulin siRNA-transfected H460 cells was determined by flow cytometry. After 72 h transfection, transfected cells were exposed to vincristine at 5 nM or 40 nM concentrations for 24 h. On the day of analysis, both adherent and floating cells were harvested, washed with PBS and then stained with a solution containing 0.4% Triton® X-100 (Sigma), 50 μg/ml propidium iodide (Sigma), and 2 μg/ml DNase-free RNase (Roche, Indianapolis, Ind.) in the dark for 15 min at 37′C. DNA content was measured by a FACSCalibur flow cytometer (Becton Dickinson, San Diego, Calif.). The flow rate was <200 nuclei per second and 10,000 cells from each sample were analysed. Measurements were performed under the same instrumental settings. The CellQuest® program was used to quantitate the distribution of cells in each cell cycle phase: sub-G1 (apoptotic cells), G1, S and G2/M.\nTo determine whether βIII-tubulin silencing affects the cell cycle profiles, cell cycle analysis using flow cytometry was performed. Cell cycle analysis was determined by transfecting H460 cells with siRNA for 72 h and harvesting (adherent and suspension) cells 24 h after drug treatment. DNA content was stained for 15 min at 37° C. with a solution containing 0.4% Triton® X-100 (Sigma-Aldrich), 50 μg/ml propidium iodide (Sigma-Aldrich), and 2 μg/ml DNAse-free RNAse (Roche, Indianapolis, Ind.). The cells were then analyzed for cell cycle perturbation using a FACSCalibur (Becton-Dickinson, Franklin Lakes, N.J.). The CellQuest® program was used to quantitate the distribution of cells in each cell cycle phase: sub-G1(apoptotic cells), G1, S and G2/M."}}, "data": [{"smiles": "CC(=O)O[C@H]1C(=O)[C@@]2(C)[C@H]([C@H](OC(=O)c3ccccc3)[C@]3(O)C[C@H](OC(=O)[C@H](O)[C@@H](NC(=O)c4ccccc4)c4ccccc4)C(C)=C1C3(C)C)[C@]1(OC(C)=O)CO[C@@H]1C[C@@H]2O", "note": "[Paclitaxel, paclitaxel]", "values": [{"measurement": "cross-resistance of the 2ME2-resistant cells", "setting": "CCRF-CEM Leukaemia cells", "value": "not cross resistant"}, {"measurement": "change in drug sensitivity (clonogenic survival)", "setting": "Calu-6 cells [1]; class II β-tubulin siRNA knockdown vs controls", "value": "did not significantly potentiate the cytotoxicity"}, {"measurement": "change in drug sensitivity (clonogenic survival)", "setting": "Calu-6 cells [1]; class IVb β-tubulin siRNA knockdown vs controls", "value": "no effect on sensitivity"}, {"measurement": "microtubule morphology", "setting": "Calu-6 cells [2]; βII siRNA-transfected Calu-6, 10 nM drug", "value": "did not appear significantly different"}, {"measurement": "microtubule morphology", "setting": "Calu-6 cells [2]; βIII siRNA-transfected Calu-6, 10 nM drug", "value": "extensive disruption of the microtubule cytoskeleton"}, {"measurement": "cell cycle profile", "setting": "H460 cells; control siRNA cells, 40 nM", "value": "marked G2/M block"}, {"measurement": "cell cycle profile", "setting": "H460 cells; βIII-tubulin siRNA cells vs control siRNA, 5 nM", "value": "higher sub-G1 (apoptotic cells) content"}, {"measurement": "cell cycle profile", "setting": "H460 cells; βIII-tubulin siRNA cells, 40 nM", "value": "marked increase in the sub-G1 population"}]}]}
